How the values were obtained:
[1] = test system: S. epidermidis (DSM 1798); assay: P18 in pharmaceutical base formulation (CFU); assay type: cell-based, Staphylococcus epidermidis; settings: 10 000 ppm in the formulation, mixed 1:9 with suspension
Method: (§1) The aim of the experiment was to study the effect of a pharmaceutical base formulation containing the P18 peptide ingredient (P18 sequence H-KWKLFKKIPKFLHLAKKF-NH2 (Bachem AG, Switzerland)) on further fungi and bacteria. For this purpose, the following base formulation was used: […]
(§2) 1% hydroxycellulose 10% propylene glycol made up with water.
(§3) Based on the base formulation, formulations containing 10 000 ppm of P18 peptide were prepared from a 20% concentrate solution.
(§4) The effect of the formulations on S. epidermidis (DSM 1798), M. furfur (DSM 6170) and T. rubrum (DSM 21146) was studied.
TSBY growth medium for S. epidermidis Ready-made TSB medium (Becton, Dickinson and Company, Sparks, USA) 17 g of pancreatin-degraded casein 3 g of pancreatin-degraded soya 2.5 g of dextrose 5 g of sodium chloride 2.5 g of dipotassium phosphate 3 g of yeast extract (Becton, Dickinson and Company, Sparks, USA) make up to 1 liter, set pH 7 […]
(§5) 1.5 ml reaction vessels were each filled with 1 ml of medium and inoculated with the fungal or bacterial suspension from the overnight culture such that the resulting suspensions at the start of the experiment had been adjusted to an optical density, measured at 600 nm, of 0.1. […] After incubation over 24 hours, the colonies on the plates were counted.

[2] = test system: Malassezia furfur; assay: Effect of P18 in the presence of nonionic and zwitterionic surfactants (CFU); assay type: cell-based; settings: 24 hours
Method: The aim of the experiment was to study the effect of nonionic and zwitterionic surfactants on the activity of P18 peptide (P18 sequence […]). For this purpose, the following surfactants were used: Pluracare F 68 (a polyoxyethylene-polyoxypropylene-polyoxyethylene block copolymer) Plantacare 818 (a glucoside) Tego Betain L7 (cocamidopropyl betaine) The growth test was effected as follows: a shake culture containing […]. furfur and incubated with shaking at 30° C. and 200 rpm overnight. […] The concentrations of the detergent solutions were adjusted such that the final concentration of the particular detergent in the mixture was 2%; 4% or 6%. The concentrations of the P18 peptide solutions were adjusted such that the final concentration of the P18 peptide in the mixture was 0 μM; 50 μM; 100 μM; 250 μM; or 500 μM. The microtiter plate was incubated with shaking at 30° C. […] The CFU was determined in order to rule out any influence of the biphasic medium, and also the growth form of M. furfur, on the optical density. The experiments were each conducted in triplicate determination at least in two independent experiments.

[3] = test system: T. rubrum (DSM 21146); assay: P18 in pharmaceutical base formulation (CFU); assay type: cell-based, Trichophyton rubrum; settings: 10 000 ppm in the formulation, mixed 1:9 with suspension
Method: as §1, §2, §3, §4
MEP growth medium according to DSMZ for T. rubrum 30 g of malt extract (Becton, Dickinson and Company, Sparks, USA) 3 g of soya peptone (Becton, Dickinson and Company, Sparks, USA) make up to 1 liter, set pH 5.6.
For T. rubrum, an agar plate on which it had grown was rinsed with 5 ml of medium. 10 μl of the resulting suspension were added to 1 ml of MEP medium and used directly in the experiment.
as §5

[4] = test system: C. albicans (DSM 11948); assay: P18 in pharmaceutical base formulation (CFU); assay type: cell-based, Candida albicans; settings: mixed 1:9 with suspension
Method: The aim of the experiment was to study the effect of a pharmaceutical base formulation with the P18 peptide ingredient (P18 sequence H-KWKLFKKIPKFLHLAKKF-NH2 (Bachem AG, Switzerland)). For this purpose, the following base formulation was used: […]
as §2
Based on the base formulation, formulations with rising P18 concentrations (500 ppm to 10 000 ppm) were prepared from a 20% concentrate solution.
The effect of the formulations on C. albicans (DSM 11948) was studied.
YM growth medium (Becton, Dickinson and Company, Sparks, USA) 3 g of yeast extract 3 g of malt extract 5 g of peptone 10 g of dextrose make up to 1 liter, set pH 6.2
The growth test was effected as follows: 5 ml of YM medium were inoculated with C. albicans and incubated at 30° C. and 200 rpm overnight.
1.5 ml reaction vessels were each filled with 1 ml of YM medium and inoculated with the C. albicans suspension from the overnight culture such that an optical density—measured at 600 nm—of 0.1 was obtained at the start of the experiment. The resulting C. albicans suspension was mixed in a ratio of 1:9 (formulation: C. albicans suspension) with the formulations. 1 μl of the culture was diluted with 20 μl of YM medium after 5 minutes, 10 minutes, 20 minutes and 60 minutes, and then plated out. After incubation over 24 hours, the colonies on the plates were counted.

H-KWKLFKKIPKFLHLAKKF-NH2 [P18, H-KWKLFKKIPKFLHLAKKF-NH2]
Colony forming units after the incubation time specified ([1]; 5 minutes): 790 ± 393 CFU | Colony forming units after the incubation time specified ([1]; 60 minutes): 513 ± 20 CFU | Colony forming units (CFU) counted per μl ([2]; Plantacare 818 2%, P18 50 μM): 6 CFU per μl | Colony forming units (CFU) counted per μl ([2]; Plantacare 818 2%, P18 100 μM): 0 CFU per μl | Colony forming units (CFU) counted per μl ([2]; Plantacare 818 2%, P18 250 μM): 0 CFU per μl | Colony forming units (CFU) counted per μl ([2]; Plantacare 818 2%, P18 500 μM): 0 CFU per μl | Colony forming units (CFU) counted per μl ([2]; Plantacare 818 4%, P18 50 μM): 39 CFU per μl | Colony forming units (CFU) counted per μl ([2]; Plantacare 818 4%, P18 100 μM): 5 CFU per μl | Colony forming units (CFU) counted per μl ([2]; Plantacare 818 4%, P18 250 μM): 0 CFU per μl | Colony forming units (CFU) counted per μl ([2]; Plantacare 818 4%, P18 500 μM): 0 CFU per μl | Colony forming units (CFU) counted per μl ([2]; Plantacare 818 6%, P18 50 μM): 106 CFU per μl | Colony forming units (CFU) counted per μl ([2]; Plantacare 818 6%, P18 100 μM): 10 CFU per μl | Colony forming units (CFU) counted per μl ([2]; Plantacare 818 6%, P18 250 μM): 0 CFU per μl | Colony forming units (CFU) counted per μl ([2]; Plantacare 818 6%, P18 500 μM): 0 CFU per μl | Colony forming units (CFU) counted per μl ([2]; Pluracare F68 2%, P18 50 μM): 4 CFU per μl | Colony forming units (CFU) counted per μl ([2]; Pluracare F68 2%, P18 100 μM): 1 CFU per μl | Colony forming units (CFU) counted per μl ([2]; Pluracare F68 2%, P18 250 μM): 0 CFU per μl | Colony forming units (CFU) counted per μl ([2]; Pluracare F68 2%, P18 500 μM): 0 CFU per μl | Colony forming units (CFU) counted per μl ([2]; Pluracare F68 4%, P18 50 μM): 2 CFU per μl | Colony forming units (CFU) counted per μl ([2]; Pluracare F68 4%, P18 100 μM): 0 CFU per μl | Colony forming units (CFU) counted per μl ([2]; Pluracare F68 4%, P18 250 μM): 0 CFU per μl | Colony forming units (CFU) counted per μl ([2]; Pluracare F68 4%, P18 500 μM): 0 CFU per μl | Colony forming units (CFU) counted per μl ([2]; Tego Betain L7 2%, P18 50 μM): 0 CFU per μl | Colony forming units (CFU) counted per μl ([2]; Tego Betain L7 2%, P18 100 μM): 0 CFU per μl | Colony forming units (CFU) counted per μl ([2]; Tego Betain L7 2%, P18 250 μM): 0 CFU per μl | Colony forming units (CFU) counted per μl ([2]; Tego Betain L7 2%, P18 500 μM): 0 CFU per μl | Colony forming units (CFU) counted per μl ([2]; Tego Betain L7 4%, P18 50 μM): 3 CFU per μl | Colony forming units (CFU) counted per μl ([2]; Tego Betain L7 4%, P18 100 μM): 0 CFU per μl | Colony forming units (CFU) counted per μl ([2]; Tego Betain L7 4%, P18 250 μM): 0 CFU per μl | Colony forming units (CFU) counted per μl ([2]; Tego Betain L7 4%, P18 500 μM): 0 CFU per μl | Colony forming units (CFU) counted per μl ([2]; Tego Betain L7 6%, P18 50 μM): 0 CFU per μl | Colony forming units (CFU) counted per μl ([2]; Tego Betain L7 6%, P18 100 μM): 0 CFU per μl | Colony forming units (CFU) counted per μl ([2]; Tego Betain L7 6%, P18 250 μM): 0 CFU per μl | Colony forming units (CFU) counted per μl ([2]; Tego Betain L7 6%, P18 500 μM): 0 CFU per μl | Colony forming units after the incubation time specified ([3]; 5 minutes): 25 ± 8 CFU | Colony forming units after the incubation time specified ([3]; 60 minutes): 6 ± 1 CFU | Colony forming units after the incubation time specified ([4]; 10 000 ppm in the formulation, 5 minutes): 0.5 ± 0 CFU | Colony forming units after the incubation time specified ([4]; 10 000 ppm in the formulation, 10 minutes): 0 ± 0 CFU | Colony forming units after the incubation time specified ([4]; 10 000 ppm in the formulation, 20 minutes): 0 ± 0 CFU | Colony forming units after the incubation time specified ([4]; 10 000 ppm in the formulation, 60 minutes): 0 ± 0 CFU | Colony forming units after the incubation time specified ([4]; 500 ppm in the formulation, 5 minutes): 1484 ± 28 CFU | Colony forming units after the incubation time specified ([4]; 500 ppm in the formulation, 10 minutes): 1445 ± 38 CFU | Colony forming units after the incubation time specified ([4]; 500 ppm in the formulation, 20 minutes): 1262 ± 354 CFU | Colony forming units after the incubation time specified ([4]; 500 ppm in the formulation, 60 minutes): 962 ± 738 CFU | Colony forming units after the incubation time specified ([4]; 1000 ppm in the formulation, 5 minutes): 863 ± 553 CFU | Colony forming units after the incubation time specified ([4]; 1000 ppm in the formulation, 10 minutes): 616 ± 76 CFU | Colony forming units after the incubation time specified ([4]; 1000 ppm in the formulation, 20 minutes): 251 ± 109 CFU | Colony forming units after the incubation time specified ([4]; 1000 ppm in the formulation, 60 minutes): 3.25 ± 1.8 CFU | Colony forming units after the incubation time specified ([4]; 2000 ppm in the formulation, 5 minutes): 29 ± 23 CFU | Colony forming units after the incubation time specified ([4]; 2000 ppm in the formulation, 10 minutes): 3.5 ± 3.5 CFU | Colony forming units after the incubation time specified ([4]; 2000 ppm in the formulation, 20 minutes): 0.25 ± 0.4 CFU | Colony forming units after the incubation time specified ([4]; 2000 ppm in the formulation, 60 minutes): 0 ± 0 CFU | Colony forming units after the incubation time specified ([4]; 5000 ppm in the formulation, 5 minutes): 1 ± 0.7 CFU | Colony forming units after the incubation time specified ([4]; 5000 ppm in the formulation, 10 minutes): 0 ± 0 CFU | Colony forming units after the incubation time specified ([4]; 5000 ppm in the formulation, 20 minutes): 0 ± 0 CFU | Colony forming units after the incubation time specified ([4]; 5000 ppm in the formulation, 60 minutes): 0 ± 0 CFU
